Results published in paper PMC12442099 (ACS Infectious Diseases, 2025).
Converted amounts (≈) assume the structure as drawn.

Columns and labels:
[1] = test system: Rcs cell envelope stress response in Escherichia coli; assay: Rcs stress reporter assay, HTS format, dose-response curves; assay type: cell-based; conditions: for Emax: read-out: Max. effect (%); for EC50: read-out: pEC50 (converted)
Method: We adapted the reporter assay based on the Rcs stress system for HTS in a screening program at the ELF as the first bacterial phenotypic screen used in this setting. , The assay was performed in a 1536-well format using 25 μM PMBN as a reference (set at 100% effect).
The ELF screened their extensive and diverse library consisting of >500,000 small molecules at a concentration of 10 μM. The assay window (S/B) and Z’ values remained stable (2.0–15.2 and 0.50–0.90, respectively) throughout the screening campaign. The detailed standard screening procedure of the ELF is outlined elsewhere. An overview of the selection process of the screening campaign performed here is outlined in Figure . Initially, 340 compounds with an effect ≥20% of the reference compound PMBN were considered biologically active. Usually, up to 1% of the input library is selected for confirmatory, dose–response, orthogonal and deselection assays. Because the number of biological actives identified in this assay was well below the 1% limit, no orthogonal assays were performed. Instead, all compounds were reordered and tested as dilution series in the Rcs assay to generate dose–response curves (DRCs). Each compound’s pEC50 (−log of EC50, defined as the concentration (mol/L) at which 50% effect is achieved) was determined, and compounds with a pEC50 ≥ 4.7 were selected for further analysis. Next, the compounds were subjected to a mammalian cell-based cytotoxicity assay to exclude toxic compounds that may have a generic effect on membrane integrity. Compounds that reduced mammalian cell viability by 50% were considered cytotoxic. The qualified hit list (QHL) was then generated following triaging based on LC-MS analysis and pEC50 values.
Overnight cultures (ONCs) were prepared by inoculating 5 mL medium from glycerol stocks and incubating the culture for 16–18 h. ONCs were then diluted to an OD600 of 0.05 and grown until an OD600 of 0.3–0.4 was reached.
Assay robustness was confirmed by testing its sensitivity to assay-interfering agents, including colored, aggregating and fluorescent compounds. […] For HTS, bacteria were diluted 50x in prewarmed medium. Fifteen nL of assay compounds (10 μM), DMSO (0.25%), or the reference compound polymyxin B nonapeptide (PMBN) at 25 μM were added to 1536 well plates. Next, 6 μL culture aliquots were added to assay plates containing compounds. Plates were briefly centrifuged for 1 min at 150 x g. Plates were incubated at 37 °C with high humidity and fluorescence (Ex./Em. λ: 485/528 nm) was measured at T = 0 and T = 150 min using a ClarioStar plate reader (BMG Labtech). For data analysis, T = 0 values were subtracted from T = 150 values to calculate Z-score and % effect compared to the reference compound.
Dose–response curves of the 340 initial active compounds were determined following the preparation of serial dilutions (20 nM–20 μM; 7 points, √10). The % effect compared to the reference compound PMBN was calculated and plotted for each compound dilution. The resulting plots were used to calculate pEC50 (-log(EC50), with EC50 being determined as the concentration at which a 50% effect is observed).

[2] = test system: E. coli MC4100; assay: Growth inhibition after 7 hours (EC80/EC50); conditions: Escherichia coli, MC4100, 7 h; for EC50: read-out: EC50 MC4100; for IC80: read-out: EC80 MC4100
[3] = test system: E. coli MC4100 FQR and GEPR mutants; assay: Growth kinetics on resistant mutants; assay type: cell-based; conditions: EC80 concentrations, Fig. S3
Method: ONC of E. coli MC4100 were diluted to OD600 = 0.07 in 20 mL LB supplemented with an initial concentration of 0.4 μM lomefloxacin, 8 μM gepotidacin, or no antibiotic. After overnight incubation, part of the culture was plated onto LB agar plates with the same concentration of lomefloxacin or gepotidacin to isolate resistant colonies. OD600 of the remaining culture was determined and diluted to OD600 = 0.1 into fresh medium with a 1.5–2-fold increased concentration of lomefloxacin or gepotidacin. […] Resistant colonies were sent for Whole Genome Sequencing using short Illumina reads at MicrobesNG (Birmingham, UK). Sequencing data was analyzed using CLC Genomics Workbench (Qiagen).
Figure S3: Growth kinetics of lomefloxacin, gepotidacin, A2 and B1 on WT, FQR and GEPR mutants. E. coli
TOP10F’ cells were treated with EC80 concentrations of compounds and growth (OD600) recorded over time.
Graphs indicate % growth compared to DMSO control. Error bars indicate standard deviations of triplicates. […]

[4] = test system: SOS stress response in E. coli MC4100; assay: SOS stress reporter assay (PlexA-mNG); assay type: cell-based; conditions: EC80 compound concentrations (Fig. 5A); Fig. S4
Excerpt: To examine the potential link between DNA gyrase inhibition, SOS stress, and CE stress, we designed a fluorescent SOS reporter plasmid, similar to the reporter plasmids used to study CE stresses.
5 (A) SOS stress induced by different compounds at EC80 concentrations in E. coli MC4100. (B) Rcs stress of different compounds at EC80 concentrations in E. coli MC4100. (C) Rcs stress of the nonquinolone gyrase inhibitor LEI-800 in TOP10F’. (D) Rcs stress induced by mitomycin C in E. coli TOP10F’ and E. coli MC4100. Graphs show fold change in fluorescence adjusted for bacterial growth (OD600). Error bars indicate standard deviation of triplicates. Data are representative of two independent experiments with similar results.

[5] = test system: Rcs stress response in E. coli MC4100 (WT, FQR, GEPR); assay: Rcs stress reporter assay in MC4100 wildtype and resistant mutants; assay type: cell-based; conditions: EC80 concentrations
Excerpt: Serial passaging of E. coli MC4100 in the presence of increasing concentrations of lomefloxacin or gepotidacin yielded resistant variants of E. coli MC4100. We used MC4100 to raise resistance, because unlike the screening strain TOP10F’, this strain has a functional SOS stress response, which has been implicated in developing resistance against quinolones. Compounds also elicited a robust Rcs stress response in E. coli MC4100, allowing for this strain to be used for stress assays.
4 Rcs stress induced by EC80 concentrations of (A) lomefloxacin, (B) gepotidacin, (C) A2, and (D) B1 in wildtype (WT), fluoroquinolone resistant (FQR) or gepotidacin resistant (GEPR) bacteria. Graphs show the fold change in fluorescence adjusted for bacterial growth as determined by OD600. Error bars indicate the standard deviation of triplicate samples. Data are representative of three independent experiments with similar results. […]
For lower throughput analysis under laboratory conditions, cultures grown to OD600 of 0.3–0.4 were diluted to a final concnetration of 0.05 OD600 units/mL in black, clear-bottom 96-well plates (Greiner Bio-One B.V.). Plates were incubated in a Biotek HTX or H1 plate reader (Agilent Technologies) at 37 °C with continuous shaking. Kinetic studies were performed by measuring OD600 and fluorescence (Ex./Em. Λ: 485/528 nm) every 20 min for 10h. For end point measurements, fluorescence was measured at T = 0 and once more at T = 150 min.

CC(C)(C)n1cc(C(=O)O)c(=O)c2cc(F)c(N3CC4CC3CN4)nc21 (centres unmarked) [A2]
Emax [1]: 26.6% | EC50 [1]: 107 nM | EC50 [2]: 0.125 µg/mL (≈ 0.347 µM) | IC80 [2]: 0.25 µg/mL (≈ 0.694 µM) | growth inhibition / susceptibility of FQR (gyrA S83L) mutant [3]: showed cross-resistance | growth inhibition / susceptibility of GEPR mutant [3]: less susceptible | SOS stress induction in MC4100 [4]: induced SOS stress at similar levels as the FQ lomefloxacin | Rcs stress in FQR (gyrA S83L) mutant [5]: lacked Rcs stress

O=C1COc2ccc(CNC3CCN(CC4Cc5c(F)cc(F)c6ccc(=O)n4c56)CC3)nc2N1 (centres unmarked) [B1]
Emax [1]: 53.3% | EC50 [1]: 282 nM | EC50 [2]: 0.5 µg/mL (≈ 1.04 µM) | IC80 [2]: 2 µg/mL (≈ 4.15 µM) | growth inhibition / susceptibility of FQR (gyrA S83L) mutant [3]: remained susceptible to growth inhibition | growth inhibition / susceptibility of GEPR mutant [3]: exhibited cross-resistance | SOS stress induction in MC4100 [4]: induced SOS stress at similar levels as the FQ lomefloxacin | Rcs stress in FQR (gyrA S83L) mutant [5]: still exhibited Rcs stress | Rcs stress in GEPR mutant [5]: did not show Rcs stress
